Where “and” joins values, the source holds several entries; their conditions need not be identical. Equal values may be shown once.
What was measured:
[1] = target: T1, BRD4 (BD1+BD2) (Homo sapiens, UniProt O60885); assay: BRD4 (BD1+BD2) TR-FRET binding assay; details: for Biochemical activity against BRD4 (BD1 + BD2): Fig.1d, replicates
T1 construct: purchased BPS 32612
From the text: 2. BRD4 binding assay. The inhibitory effects of NHWD-530, NHWD-540, NHWD- […]
(BPS, Cat # 32612) per manufacturer’s instructions. […]

[2] = tested on: H526 SCLC tumors; assay: H526 SCLC xenograft tumor growth; type: in vivo, mouse; details: for Tumor volume: Fig.3a, n=6, individual animals
From the text: PO, oral administration; QD, once daily; BID, twice daily. b–d Tumor growth curves for A2780 ovarian tumor (n = 5) (b), TMD8 large B cell lymphoma (n = 6) (c), and B16F10 melanoma (n = 5) (d) bearing mice treated with the indicated compounds once daily for 11-21 days. e, f Tumor growth curves for A375 melanoma (n = 6) (e), and patient-derived xenograft (PDX) of melanoma (n = 5) (f) bearing mice treated with the indicated compounds once daily (5 days on, 2 days off) for 21 days. For d–f, NHWD-870 used is NHWD-870-HCl synthesized using Suzuki coupling route. Data are presented as mean ± SEM in (a, b, d, f) and mean + SEM in (c, e). p values were calculated using two-tailed, unpaired t tests. *p < 0.05; **p < 0.01; ***p < 0.001. Source data are provided as a Source Data file.
4–6 weeks old female BALB/c nude mice were used for most experiments, with the exception of 6–8 weeks old female C57BL/6 mice were used for B16F10 experiments, and 6–8 weeks old male BALB/c nude mice and SD rats were used for pharmacokinetic experiments. All animals were purchased from Shanghai SIPPR-Bk Lab Animal Co., Ltd. All animals were housed under a regimen of 12 h light/12 h dark cycles and specific pathogen-free conditions. 5×10^6 NCI-H526, ES-2, MDA-MB231, A2780, A375, B16F10, and TMD-8 cells (0.1 ml) were injected subcutaneously into female nude mice. The melanoma patient-derived xenograft model was derived from a human melanoma sample (BRAF, NARS and NF1 wild type, and p53 mutant) removed from a patient in Xiangya Hospital. Surgically removed tumor fragments were implanted subcutaneously into female NSG mice. When the tumors grew to ~1000 mm^3, they were harvested and cryopreserved or immediately re-implanted for expansion or experiments. Mouse body weight and tumor sizes were measured every 3 days. Once the tumors grew to 150–200 mm^3, mice were treated with the compounds as described in the Figures. 1 × 10^6 A2780 cells (1 ml) were injected into the abdominal cavity of nude mice. Ascitic volume and tumor weight were measured by an electronic balance. All the procedures were evaluated and approved by the Institutional Animal Care and Use Committee of Central South University and Yale University.

Q: Which “Biochemical activity against BRD4 (BD1 + BD2)” value (“Biochemical activity” below) ([1]; concentration(nM) 0.0021442) does the source give for `Cc1nnn(C)c1-c1cnc2c3c4cnn(C)c4ccc3n([C@H](c3ccccc3)C3CCOCC3)c2c1` [NHWD-870] here?
A: 0.8628 and 1.4579

Q: What about the “Biochemical activity” value ([1]; concentration(nM) 0.061236) of the same molecule?
A: 16.5754 and 12.5588

Q: And the “Biochemical activity” value ([1]; concentration(nM) 0.103)?
A: 20.2946 and 25.6828

Q: What about the “Biochemical activity” value ([1]; concentration(nM) 0.59176) of the same molecule?
A: 60.3038 and 63.4692

Q: And the “Biochemical activity” value ([1]; concentration(nM) 1.19382)?
A: 79.3053 and 83.6424

Q: And the “Biochemical activity” value ([1]; concentration(nM) 1.79588)?
A: 95.9066 and 95.1156

Q: What about the “Biochemical activity” value ([1]; concentration(nM) 2.39794) of the same molecule?
A: 100.74 and 99.5542

Q: What about the “Biochemical activity” value ([1]; concentration(nM) 3) of the same molecule?
A: 101.339 and 101.804

Q: And the IC50 ([1]; average IC50, nM, read-out: IC50, biochemical activity against BRD4 (BD1 + BD2))?
A: 2.7 nM and 2.72 nM

Q: And the Tumor volume ([2]; 0.75mg/kg p.o. QD x 21D, day 0)?
A: 192.244 mm^3 and 263.88 mm^3 and 212.226 mm^3 and 157.172 mm^3 and 251.256 mm^3 and 74.1662 mm^3

Q: And the Tumor volume ([2]; 0.75mg/kg p.o. QD x 21D, day 3)?
A: 395.966 mm^3 and 556.678 mm^3 and 654.987 mm^3 and 201.421 mm^3 and 423.505 mm^3 and 90.8277 mm^3

Q: And the Tumor volume ([2]; 0.75mg/kg p.o. QD x 21D, day 7)?
A: 723.612 mm^3 and 1124.37 mm^3 and 964.914 mm^3 and 402.947 mm^3 and 655.847 mm^3 and 216.235 mm^3

Q: What about the Tumor volume ([2]; 0.75mg/kg p.o. QD x 21D, day 10) of the same molecule?
A: 1123.82 mm^3 and 1337.09 mm^3 and 1219.11 mm^3 and 614.795 mm^3 and 939.345 mm^3 and 324.637 mm^3

Q: What about the Tumor volume ([2]; 0.75mg/kg p.o. QD x 21D, day 14) of the same molecule?
A: 1169.07 mm^3 and 1508.45 mm^3 and 1544.25 mm^3 and 755.744 mm^3 and 1018.31 mm^3 and 369.016 mm^3

Q: And the Tumor volume ([2]; 0.75mg/kg p.o. QD x 21D, day 17)?
A: 1563.43 mm^3 and 1842.12 mm^3 and 2108.97 mm^3 and 937.093 mm^3 and 1199.84 mm^3 and 528.17 mm^3

Q: And the Tumor volume ([2]; 0.75mg/kg p.o. QD x 21D, day 20)?
A: 1882.72 mm^3 and 1980.4 mm^3 and 2365.8 mm^3 and 1110.57 mm^3 and 1230.51 mm^3 and 727.098 mm^3

Q: What about the Tumor volume ([2]; 1.5mg/kg p.o. BID x 21D, day 0) of the same molecule?
A: 109.221 mm^3 and 224.83 mm^3 and 299.894 mm^3

Q: And the Tumor volume ([2]; 1.5mg/kg p.o. BID x 21D, day 3)?
A: 144.898 mm^3 and 505.755 mm^3

Q: And the Tumor volume ([2]; 1.5mg/kg p.o. BID x 21D, day 7)?
A: 197.484 mm^3 and 503.899 mm^3

Q: And the Tumor volume ([2]; 1.5mg/kg p.o. BID x 21D, day 10)?
A: 131.255 mm^3 and 391.019 mm^3

Q: What about the Tumor volume ([2]; 1.5mg/kg p.o. BID x 21D, day 14) of the same molecule?
A: 62.3145 mm^3 and 300.826 mm^3

Q: And the Tumor volume ([2]; 1.5mg/kg p.o. BID x 21D, day 17)?
A: 47.429 mm^3 and 191.773 mm^3

Q: What about the Tumor volume ([2]; 1.5mg/kg p.o. BID x 21D, day 20) of the same molecule?
A: 26.6114 mm^3 and 100.415 mm^3 and 135.956 mm^3

Q: What about the Tumor volume ([2]; 1.5mg/kg p.o. QD x 21D, day 0) of the same molecule?
A: 70.0321 mm^3 and 190.911 mm^3 and 142.166 mm^3 and 225.589 mm^3 and 289.503 mm^3 and 248.923 mm^3

Q: And the Tumor volume ([2]; 1.5mg/kg p.o. QD x 21D, day 3)?
A: 54.6804 mm^3 and 344.715 mm^3 and 214.258 mm^3 and 388.716 mm^3 and 680.326 mm^3 and 337.153 mm^3

Q: What about the Tumor volume ([2]; 1.5mg/kg p.o. QD x 21D, day 7) of the same molecule?
A: 52.3406 mm^3 and 448.169 mm^3 and 304.6 mm^3 and 593.496 mm^3 and 1004.88 mm^3 and 603.12 mm^3

Q: And the Tumor volume ([2]; 1.5mg/kg p.o. QD x 21D, day 10)?
A: 65.7752 mm^3 and 568.076 mm^3 and 360.126 mm^3 and 706.593 mm^3 and 1344.39 mm^3 and 669.797 mm^3

Q: What about the Tumor volume ([2]; 1.5mg/kg p.o. QD x 21D, day 14) of the same molecule?
A: 53.8674 mm^3 and 610.408 mm^3 and 386.917 mm^3 and 812.577 mm^3 and 1371.12 mm^3 and 772.943 mm^3

Q: What about the Tumor volume ([2]; 1.5mg/kg p.o. QD x 21D, day 17) of the same molecule?
A: 48.5889 mm^3 and 810.7 mm^3 and 443.445 mm^3 and 889.286 mm^3 and 1654.72 mm^3 and 1027.16 mm^3

Q: What about the Tumor volume ([2]; 1.5mg/kg p.o. QD x 21D, day 20) of the same molecule?
A: 34.4047 mm^3 and 640.677 mm^3 and 402.424 mm^3 and 852.013 mm^3 and 1472.9 mm^3 and 894.82 mm^3

Q: What about the “effect on tumor growth” value ([2]; H526 SCLC, oral, 3 mg/kg per day or 1.5 mg/kg twice per day, 21 days) of the same molecule?
A: regressed established H526 SCLC tumors
